According to US20200054646A1, “USE OF PHENOTHIAZINE DERIVATIVE IN THE TREATMENT OF INFECTIOUS PURPURA OR PURPURA FULMINANS” (priority 2016, published 2020):

Legend:
[1] = system: HDMEC infected with Nm2C4.3; experiment: Cytoskeleton remodelling and endothelial cell junction integrity of infected HDMEC (Ezrin, Actin, VE-cadherin immunostaining); format: cell-based, human
Procedure: (A) Experimental procedure: HDMEC were infected for 2 h with Nm2C4.3, treated for 1 h with gentamicin (150 μg/ml) and then 15 min with Trifluoperazine (50 μM) (or solvent alone as a control) and left in medium for 1 h before fixation. (B) Upper panels: Representative fluorescence microscopy showing the effect on the endothelial cell cytoskeleton remodelling analysed by immunostaining of Ezrin and Actin. Lower panels: Effect on the endothelial cell junction integrity was analysed by immunostaining of Actin and VE-cadherin. (C) Quantification of the bacterial colonization (upper panel) Ezrin recruitment and cortical actin polymerization at sites of bacterial adhesion (lower panel) was performed using Image J software.
HDMECs were grown in their specific culture medium (Promocell #C-12210) and confluent monolayers were infected with 2C4.3. Briefly, bacteria were precultured in prewarmed cell culture medium for 1 h 30 min at 37° C. 5% CO2. The OD600 was adjusted to 0.1 and HDMECs were then overlaid with bacteria for 30 min (MOI of 100). Unbound bacteria were removed by three washes in cell culture media and infection was allowed to proceed for 1 h at 37° C. 5% CO2. Gentamicin was added at 150 μg/ml for 1 h, then after three washes in cell culture media, Trifluoperazine was applied where mentioned at 50 μM for 20 min. After three washes in cell culture media, cells were allowed to recover for 1 h in cell culture media. At the indicated time, cells were fixed with 4% Paraformaldehyde for 10 min. Immunolabelling was then performed as above described in example 4, using DAPI, Alexa Fluor 633 Phalloidin, Polyclonal antisera raised against Ezrin, obtained from Pr P. Mangeat (CRBM, Montpellier, France) and anti-human VE-Cadherin (eBioscience #BMS158). When indicated, HBMECs were grown on Thermanox coverslips coated with gelatin 2% for 2 days to reach confluency. Cells were then infected as above described in the presence or in the absence of 5 μM Trifluoperazine for 2 h. Cells were washed and fixed in 4% paraformaldehyde and immunolabelling was performed with a polyclonal antisera raised anti-Nm2C4.3 strain, anti-human PECAM-1 mouse monoclonal, clone HEC7 (ABCAM ab119339) or rabbit polyclonal 177 raised against PECAM-1, obtained from WA Muller (Northwestern University, Chicago, Ill., US), anti-[…] catenin (05-482, UBI), polyclonal antisera raised against Ezrin, Alexa Fluor 633 Phalloidin. Secondary antibodies were from Jackson ImmunoResearch Laboratories. Image acquisitions were performed on a Leica DM16000 with Yokogawa CSU-X1M1 system and CoolSnap HQ2 (Photometrics). Quantifications were done using ImageJ software (NIH).

[2] = system: N. meningitidis 2C4.3 bacterial aggregates; experiment: microbe, parasite or virus in culture; format: cell-based, Neisseria meningitidis
Procedure: N. meningitidis 2C4.3 was grown in liquid culture at 10^7 CFU/ml for 2 h to form bacterial aggregates and were treated with increasing concentrations of Trifluoperazine (10 to 40 μM), Gentamicin (150 μg/ml) or cefotaxim (20 μg/ml) for 20 minutes and bacterial aggregates were immediately visualized using a phase-contrast microscope. […] (B) Quantification of the bacterial aggregation was performed using Image J software.
N. meningitidis 2C4.3 wild type strain and the isogenic derivative mutant PilT ([…]PilT) were grown in liquid culture at 10^7 CFU/ml for 2 h to form bacterial aggregates and then treated with 50 μM Trifluoperazine. Time lapse phase-contrast video microscopy was performed to visualize the effect on bacterial aggregates over time. Images were taken at the indicated time points of the video.
N. meningitidis 2C4.3 was grown in liquid culture at 10^7 CFU/ml for 2 h to form bacterial aggregates and were treated with 30 μM Trifluoperazine for 30 minutes to induce bacterial dispersion or PBS as a control. The medium was replaced to remove the Trifluoperazine and the reformation of bacterial aggregates were visualized overtime using a phase-contrast microscope.
FIG. 7. […] Bacteria were grown in suspension for 2 h then Phenothiazine derivatives were added at the indicated concentrations.
N. meninigitidis 2C4.3 strain was grown in suspension in wells of a 24 well plate, containing 1 ml of DMEM medium supplemented with 10% heat-inactivated fetal calf serum. After 2 h of growth, Trifluoperazine (or control vehicle) was added at various concentrations ranging from 10 to 40 μM for 20 min and the bacterial aggregates were visualized over time using a phase-contrast microscope.
N. meninigitidis 2C4.3 strain was grown in suspension in wells of a 24 well plate, containing 1 ml of DMEM medium supplemented with 10% heat-inactivated fetal calf serum. After 2 h of growth, various concentrations (0.5 to 80 μM) of phenothiazine-derivative compounds or control vehicle (PBS or DMSO) were added to the wells for 30 min and the bacterial aggregates were visualized using a phase-contrast microscope.
Were tested phenothiazine-derivative compounds of: • the Piperazine group: Trifluoperazine (Sigma #T8516), Fluphenazine (Sigma #F4765), Prochlorperazine (Sigma #P9178) Perphenazine (Sigma #P6402); • the Piperidine group: Thioridazine (Sigma #T9025) and Mesoridazin (Sigma #M4068); • the Aliphatic group: Chlorpromazine (Sigma #C8138), Promazine (Sigma #P6656), Triflupromazine (Sigma #1686003) and levomepromazine (Sigma #L0500000).

[3] = Gentamicin 150 μg/ml for 1 h alone
[4] = Trifluoperazine 50 μM in combination with gentamicin 150 μg/ml

Structure (SMILES)	Ezrin recruitment, cortical actin polymerization, VE-cadherin distribution under residual colonies [1, 3]	number of colonies present at the cell surface [1, 3]	dispersion of bacterial aggregates formed in suspension ([2]; Gentamicin 150 μg/ml, 20 minutes)	Ezrin recruitment under residual bacteria [1, 4]	dispersion of bacterial colonies at the endothelial cell surface [1, 4]	endothelial cell junction integrity (VE-cadherin staining, gaps between cells) [1, 4]	reversibility of the effect on aggregation upon removal ([2]; 30 μM for 30 minutes, then medium replaced)	dispersion of bacterial aggregates pre-formed for two hours ([2]; 10 to 40 μM, 20 min)	concentration range of dose-dependent dispersion of aggregates ([2]; 20 min treatment, suspension)	EC80 ([2]; Neisseria meningitidis, 0.5 h, read-out: Concentration promoting efficient meningococcal dispersal (~80%))	time after addition at which dispersion occurs ([2]; time lapse video microscopy, 50 μM)
CN[C@@H]1[C@@H](O)C(O[C@@H]2[C@@H](O)[C@H](O[C@H]3O[C@H]([C@@H](C)NC)CC[C@H]3N)[C@@H](N)C[C@H]2N)OC[C@]1(C)O (stereo partly drawn) [Gentamicin, (3R,4R,5R)-2-{[(1S,2S,3R,4S,6R)-4,6-diamino-3-{[(2R,3R,6S)-3-amino-6-[(1R)-1-(methylamino)ethyl]oxan-2-yl]oxy}-2-hydroxycyclohexyl]oxy}-5-methyl-4-(methylamino)oxane-3,5-diol]	still induced Ezrin recruitment	reduced the number of colonies	did not significantly induce the dispersion	–	–	–	–	–	–	–	–
CN1CCN(CCCN2c3ccccc3Sc3ccc(C(F)(F)F)cc32)CC1 [Trifluoperazine]	–	–	–	Few Ezrin recruitment	induced the dispersion of most of the bacterial colonies	preserved endothelial cell junction integrity	reversible	induced their dispersion	10 to 40 µM	30 µM	10 to 15 min
